In paper PMC3189771, “Structure–Activity Relationship of Halophenols as a New Class of Protein Tyrosine Kinase Inhibitors” (International Journal of Molecular Sciences, 2011):

Experiments:
[1] = molecular target: protein tyrosine kinase (PTK); assay: in vitro PTK inhibitory activity by ELISA (brain cytoplasmic tyrosine kinase extract, PGT substrate); assay type: biochemical, mouse; conditions: genistein as positive control; for IC50: determined in triplicate
Method: After removal of the male mouse (SD) meninges, the brain was weighted and homogenized with a glass homogenizer in four volumes of cold medium (containing 20 mmol/L Tris–HCl, pH 7.5, 0.25 mol/L sucrose, 2 mmol/L DDT, 2 mmol/L EDTA, 2 mmol/L Na3VO4, 1 mmol/L DMSF, 215 mg/L aprotinin, 1 mg/L PTIFtatin, 5 mg/L leupeptin) at high speed. The mixture was centrifuged for 10 min at 1000 × g at 4 °C; the supernatant was collected and re-centrifuged for 10 min at 10,000 × g at 4 °C to obtain the target supernatant. The target supernatant that contained cytoplasmic tyrosine kinase was collected, separately packed and stored at −70 °C.
PTK activity was determined by the ELISA method. In brief, the concentrations of PTKs used to construct calibration curves were as follows: 600, 500, 341, 200 and 100 × 10^−7 U/mL for PTK. 100 μL of 20 mg/L PGT (Sigma Aldrich) in 20 mmol/L PBS solution was added to 96-well microtiter plates at 37 °C overnight. After removing excess substrate solution, PBS–Tween 20 (PBST) was used to wash the wells one time, which were dried for 2 h at 37 °C and kept at 4 °C. Subsequently, 50 μL of the above PTK extraction (50 mmol/L HEPES, pH 7.4, 20 mmol/L MgCl2, 0.1 mmol/L MnCl2, 0.2 mmol/L Na3VO4, 0.6 mmol/L ATP) was added to the 96-well plates. Then, a certain concentration of the tested compounds (10 μL) and tyrosine kinase tissue extract solution were incubated at 37 °C for 1 h. The plate was washed three times with PBST at the end of the treatment, and 100 μL of the diluted horseradish-peroxidase-labeled mouse anti-phosphotyrosine monoclonal antibody IgG2bk (Sigma Aldrich) was added to each well, and incubated at 37 °C for 30 min. After removal of the antibody complex, and then washing three times with PBST, 100 μL freshly prepared TMB horseradish peroxidase color development solution (Beijing 4A Biotech Co., Ltd, China) was added and protected from light for 10 min. The reaction was terminated by addition of 100 μL/well 1 N sulfuric acid. Absorbance was measured at 450 nm in a microplate reader (SpectraMax M5).

melting point	IC50 [1]	Compound	PTK inhibitory activity (in words) [1]
149 to 150 °C	> 50 µM	O=C(c1ccc(O)c(O)c1)c1ccccc1F [Compound 1c, 2-fluoro-3′,4′-dihydroxyl benzophenone]	–
104 to 106 °C	> 50 µM	O=C(c1cccc(F)c1)c1ccc(O)c(O)c1 [Compound 2c, 3-fluoro-3′,4′-dihydroxyl benzophenone]	–
186 to 188 °C	> 50 µM	O=C(c1ccc(O)c(O)c1)c1ccccc1I [Compound 4c, 2-iodo-3′,4′-dihydroxyl benzophenone]	–
–	> 50 µM	O=C(c1ccc(O)c(O)c1)c1c(Br)c(O)c(O)c(O)c1Br [Compound 5c]	no activity
–	> 50 µM	O=C(c1ccc(O)c(Br)c1)c1cc(O)c(O)cc1Br [Compound 7c]	no activity
–	6.34 µM	Oc1cc(Br)c(Cc2ccc(O)c(Br)c2)cc1O [Compound 7d]	stronger activities than that of genistein
–	17.7 µM	O=C(c1ccc(O)c(O)c1)c1ccccc1Cl [Compound 8c]	–
–	17.8 µM	O=C(c1cccc(Cl)c1)c1ccc(O)c(O)c1 [Compound 9c]	–
–	16 µM	O=C(c1ccccc1)c1cc(O)c(O)cc1Br [Compound 11c]	–
–	> 50 µM	O=C(c1ccccc1)c1cc(O)c(O)c(Br)c1Br [Compound 12c]	–
–	> 50 µM	O=C(c1cc(Br)ccc1O)c1cc(O)c(O)cc1Br [Compound 13c]	no activity
–	5.05 µM	Oc1cc(Br)c(Cc2cc(Br)ccc2O)cc1O [Compound 13d]	stronger activities than that of genistein

Second part, the molecule before the results:

Compound	melting point	IC50 [1]	PTK inhibitory activity (in words) [1]
COc1ccc(C(=O)c2ccccc2F)cc1OC [Compound 1a, 2-fluoro-3′,4′-dimethoxyl benzophenone]	77 to 79 °C	–	–
Oc1ccc(Cc2ccccc2F)cc1O [Compound 1d, 2-fluoro-3′,4′-dihydroxyl diphenylmethane]	91 to 92 °C	> 50 µM	–
COc1ccc(C(=O)c2cccc(F)c2)cc1OC [Compound 2a, 3-fluoro-3′,4′-dimethoxyl benzophenone]	103 to 105 °C	–	–
Oc1ccc(Cc2cccc(F)c2)cc1O [Compound 2d, 3-fluoro-3′,4′-dihydroxyl diphenylmethane]	66 to 68 °C	> 50 µM	–
COc1ccc(C(=O)c2ccc(F)cc2)cc1OC [Compound 3a, 4-fluoro-3′,4′-dimethoxyl benzophenone]	101 to 103 °C	–	–
O=C(c1ccc(F)cc1)c1ccc(O)c(O)c1 [Compound 3c, 4-fluoro-3′,4′-dihydroxyl benzophenone]	155 to 157 °C	> 50 µM	–
Oc1ccc(Cc2ccc(F)cc2)cc1O [Compound 3d, 4-fluoro-3′,4′-dihydroxyl diphenylmethane]	59 to 61 °C	> 50 µM	–
COc1ccc(C(=O)c2ccccc2I)cc1OC [Compound 4a, 2-iodo-3′,4′-dimethoxyl benzophenone]	143 to 145 °C	–	–
Oc1ccc(Cc2ccccc2I)cc1O [Compound 4d, 2-iodo-3′,4′-dihydroxyl diphenylmethane]	130 to 132 °C	> 50 µM	–
Oc1ccc(Cc2c(Br)c(O)c(O)c(O)c2Br)cc1O [Compound 5d]	–	> 50 µM	no activity
O=C(c1ccc(O)c(O)c1)c1c(Cl)c(O)c(O)c(O)c1Cl [Compound 6c]	–	2.97 µM	stronger activities than that of genistein
Oc1ccc(Cc2c(Cl)c(O)c(O)c(O)c2Cl)cc1O [Compound 6d]	–	3.96 µM	stronger activities than that of genistein
Oc1ccc(Cc2ccccc2Cl)cc1O [Compound 8d]	–	14.8 µM	–
Oc1ccc(Cc2cccc(Cl)c2)cc1O [Compound 9d]	–	12.9 µM	stronger activities than that of genistein
O=C(c1ccc(Cl)cc1)c1ccc(O)c(O)c1 [Compound 10c]	–	41.6 µM	–
Oc1ccc(Cc2ccc(Cl)cc2)cc1O [Compound 10d]	–	6.97 µM	stronger activities than that of genistein
Oc1cc(Br)c(Cc2ccccc2)cc1O [Compound 11d]	–	6.26 µM	stronger activities than that of genistein
Oc1cc(Cc2ccccc2)c(Br)c(Br)c1O [Compound 12d]	–	> 50 µM	–
O=c1c(-c2ccc(O)cc2)coc2cc(O)cc(O)c12 [Genistein, genistein, reference compound]	–	13.6 µM	–
